Measurements published in publication PMC12446476 (Nature Communications, 2025).
In brackets after ≈: the same amount, converted by molar mass. Like-named read-outs stand apart in the source and are kept apart here.

System: non-gonococcal Neisseria
Test: MIC determination for non-gonococcal Neisseria, agar dilution
Type: cell-based, Neisseria species
Details: read-out: Minimum inhibitory concentration
Text: The 2024 WHO N. gonorrhoeae reference strains were used for quality control. Only whole MIC doubling dilutions are reported. Clinical breakpoints or the epidemiological cutoff (ECOFF, to indicate azithromycin resistance) from EUCAST (v14.0, https://www.eucast.org/clinical_breakpoints) were used to classify isolates as antimicrobial susceptible or resistant. […] Two times the standard inoculum defined by CLSI was used to establish consistent growth in untreated control samples for some strains. In vitro time-kill assays were performed according to CLSI guidelines[65] using Columbia Broth (BD Difco) supplemented with 1% IsoVitaleX Enrichment (BD). Viable bacterial counts were generated by plating 10-fold serially diluted samples on GC agar plates containing 1% IsoVitaleX Enrichment (BD).

`Cc1c(CN(C)C(=O)/C=C/c2cnc3c(c2)N[C@H](C)[C@H](O)C(=O)N3)oc2ccccc12` [Debio 1453] showed an MIC (Neisseria mucosa 4, Replicate 1) of 1 µg/mL (≈ 2.38 µM), an MIC (Neisseria mucosa 4, Replicate 2) of 1 µg/mL (≈ 2.38 µM) and an MIC (Neisseria mucosa 4, Replicate 3) of 1 µg/mL (≈ 2.38 µM). The MIC (Neisseria mucosa 5, Consensus) was 0.5 µg/mL (≈ 1.19 µM), the MIC (Neisseria mucosa 5, Replicate 1) was 0.25 µg/mL (≈ 0.595 µM) and the MIC (Neisseria mucosa 5, Replicate 2) was 0.5 µg/mL (≈ 1.19 µM). It also gave an MIC (Neisseria mucosa 5, Replicate 3) of 0.5 µg/mL (≈ 1.19 µM), an MIC (Neisseria mucosa 6, Consensus) of 0.5 µg/mL (≈ 1.19 µM) and an MIC (Neisseria mucosa 6, Replicate 1) of 0.25 µg/mL (≈ 0.595 µM). It also gave an MIC (Neisseria mucosa 6, Replicate 2) of 0.5 µg/mL (≈ 1.19 µM), an MIC (Neisseria mucosa 6, Replicate 3) of 0.5 µg/mL (≈ 1.19 µM) and an MIC (Neisseria mucosa 7, Consensus) of 0.25 µg/mL (≈ 0.595 µM). It also gave an MIC (Neisseria mucosa 7, Replicate 1) of 0.25 µg/mL (≈ 0.595 µM), an MIC (Neisseria mucosa 7, Replicate 2) of 0.25 µg/mL (≈ 0.595 µM) and an MIC (Neisseria mucosa 7, Replicate 3) of 0.25 µg/mL (≈ 0.595 µM). For the same compound, the MIC (Neisseria mucosa 8, Consensus) was 1 µg/mL (≈ 2.38 µM), the MIC (Neisseria mucosa 8, Replicate 1) was 1 µg/mL (≈ 2.38 µM) and the MIC (Neisseria mucosa 8, Replicate 2) was 1 µg/mL (≈ 2.38 µM). For the same compound, the MIC (Neisseria mucosa 8, Replicate 3) was 1 µg/mL (≈ 2.38 µM), the MIC (Neisseria mucosa 9, Consensus) was 2 µg/mL (≈ 4.76 µM) and the MIC (Neisseria mucosa 9, Replicate 1) was 1 µg/mL (≈ 2.38 µM). It also gave an MIC (Neisseria mucosa 9, Replicate 2) of 2 µg/mL (≈ 4.76 µM), an MIC (Neisseria mucosa 9, Replicate 3) of 2 µg/mL (≈ 4.76 µM) and an MIC (Neisseria perflava 1, Consensus) of 0.25 µg/mL (≈ 0.595 µM). For the same compound, the MIC (Neisseria perflava 1, Replicate 1) was 0.25 µg/mL (≈ 0.595 µM), the MIC (Neisseria perflava 1, Replicate 2) was 0.25 µg/mL (≈ 0.595 µM) and the MIC (Neisseria perflava 1, Replicate 3) was 0.25 µg/mL (≈ 0.595 µM). The MIC (Neisseria perflava 2, Consensus) was 0.032 µg/mL (≈ 0.0761 µM), the MIC (Neisseria perflava 2, Replicate 1) was 0.032 µg/mL (≈ 0.0761 µM) and the MIC (Neisseria perflava 2, Replicate 2) was 0.032 µg/mL (≈ 0.0761 µM). It also gave an MIC (Neisseria perflava 2, Replicate 3) of 0.032 µg/mL (≈ 0.0761 µM), an MIC (Neisseria perflava 3, Consensus) of 0.032 µg/mL (≈ 0.0761 µM) and an MIC (Neisseria perflava 3, Replicate 1) of 0.032 µg/mL (≈ 0.0761 µM). It also gave an MIC (Neisseria perflava 3, Replicate 2) of 0.032 µg/mL (≈ 0.0761 µM), an MIC (Neisseria perflava 3, Replicate 3) of 0.032 µg/mL (≈ 0.0761 µM) and an MIC (Neisseria perflava 4, Consensus) of 0.25 µg/mL (≈ 0.595 µM). The MIC (Neisseria perflava 4, Replicate 1) was 0.25 µg/mL (≈ 0.595 µM), the MIC (Neisseria perflava 4, Replicate 2) was 0.25 µg/mL (≈ 0.595 µM) and the MIC (Neisseria perflava 4, Replicate 3) was 0.25 µg/mL (≈ 0.595 µM). For the same compound, the MIC (Neisseria perflava 6, Consensus) was 0.25 µg/mL (≈ 0.595 µM), the MIC (Neisseria perflava 6, Replicate 1) was 0.25 µg/mL (≈ 0.595 µM) and the MIC (Neisseria perflava 6, Replicate 2) was 0.5 µg/mL (≈ 1.19 µM). For the same compound, the MIC (Neisseria perflava 6, Replicate 3) was 0.25 µg/mL (≈ 0.595 µM), the MIC (Neisseria perflava 7, Consensus) was 0.5 µg/mL (≈ 1.19 µM) and the MIC (Neisseria perflava 7, Replicate 1) was 0.5 µg/mL (≈ 1.19 µM). For the same compound, the MIC (Neisseria perflava 7, Replicate 2) was 0.5 µg/mL (≈ 1.19 µM), the MIC (Neisseria perflava 7, Replicate 3) was 0.5 µg/mL (≈ 1.19 µM) and the MIC (Neisseria perflava 8, Consensus) was 0.25 µg/mL (≈ 0.595 µM). For the same compound, the MIC (Neisseria perflava 8, Replicate 1) was 0.25 µg/mL (≈ 0.595 µM), the MIC (Neisseria perflava 8, Replicate 2) was 0.5 µg/mL (≈ 1.19 µM) and the MIC (Neisseria perflava 8, Replicate 3) was 0.25 µg/mL (≈ 0.595 µM). For the same compound, the MIC (Neisseria perflava 9, Consensus) was 0.5 µg/mL (≈ 1.19 µM), the MIC (Neisseria perflava 9, Replicate 1) was 0.25 µg/mL (≈ 0.595 µM) and the MIC (Neisseria perflava 9, Replicate 2) was 0.5 µg/mL (≈ 1.19 µM). The MIC (Neisseria perflava 9, Replicate 3) was 0.5 µg/mL (≈ 1.19 µM), the MIC (Neisseria perflava 10, Consensus) was 0.5 µg/mL (≈ 1.19 µM) and the MIC (Neisseria perflava 10, Replicate 1) was 0.5 µg/mL (≈ 1.19 µM). The MIC (Neisseria perflava 10, Replicate 2) was 0.5 µg/mL (≈ 1.19 µM), the MIC (Neisseria perflava 10, Replicate 3) was 0.5 µg/mL (≈ 1.19 µM) and the MIC (Neisseria perflava 11, Consensus) was 1 µg/mL (≈ 2.38 µM). The MIC (Neisseria perflava 11, Replicate 1) was 1 µg/mL (≈ 2.38 µM), the MIC (Neisseria perflava 11, Replicate 2) was 1 µg/mL (≈ 2.38 µM) and the MIC (Neisseria perflava 11, Replicate 3) was 0.5 µg/mL (≈ 1.19 µM). It also gave an MIC (Neisseria perflava 12, Consensus) of 0.5 µg/mL (≈ 1.19 µM), an MIC (Neisseria perflava 12, Replicate 1) of 0.5 µg/mL (≈ 1.19 µM) and an MIC (Neisseria perflava 12, Replicate 2) of 0.5 µg/mL (≈ 1.19 µM). It also gave an MIC (Neisseria perflava 12, Replicate 3) of 0.5 µg/mL (≈ 1.19 µM), an MIC (Neisseria perflava 13, Consensus) of 0.25 µg/mL (≈ 0.595 µM) and an MIC (Neisseria perflava 13, Replicate 1) of 0.25 µg/mL (≈ 0.595 µM). For the same compound, the MIC (Neisseria perflava 13, Replicate 2) was 0.25 µg/mL (≈ 0.595 µM), the MIC (Neisseria perflava 13, Replicate 3) was 0.25 µg/mL (≈ 0.595 µM) and the MIC (Neisseria perflava 14, Consensus) was 0.5 µg/mL (≈ 1.19 µM). It also gave an MIC (Neisseria perflava 14, Replicate 1) of 0.5 µg/mL (≈ 1.19 µM), an MIC (Neisseria perflava 14, Replicate 2) of 0.5 µg/mL (≈ 1.19 µM) and an MIC (Neisseria perflava 14, Replicate 3) of 0.5 µg/mL (≈ 1.19 µM). It also gave an MIC (Neisseria perflava 15, Consensus) of 0.5 µg/mL (≈ 1.19 µM), an MIC (Neisseria perflava 15, Replicate 1) of 0.5 µg/mL (≈ 1.19 µM) and an MIC (Neisseria perflava 15, Replicate 2) of 0.5 µg/mL (≈ 1.19 µM). For the same compound, the MIC (Neisseria perflava 15, Replicate 3) was 0.5 µg/mL (≈ 1.19 µM), the MIC (Neisseria perflava 16, Consensus) was 0.5 µg/mL (≈ 1.19 µM) and the MIC (Neisseria perflava 16, Replicate 1) was 0.5 µg/mL (≈ 1.19 µM). The MIC (Neisseria perflava 16, Replicate 2) was 0.5 µg/mL (≈ 1.19 µM), the MIC (Neisseria perflava 16, Replicate 3) was 1 µg/mL (≈ 2.38 µM) and the MIC (Neisseria perflava 17, Consensus) was 0.5 µg/mL (≈ 1.19 µM). For the same compound, the MIC (Neisseria perflava 17, Replicate 1) was 0.5 µg/mL (≈ 1.19 µM), the MIC (Neisseria perflava 17, Replicate 2) was 0.5 µg/mL (≈ 1.19 µM) and the MIC (Neisseria perflava 17, Replicate 3) was 0.5 µg/mL (≈ 1.19 µM). The MIC (Neisseria perflava 18, Replicate 2) was 0.25 µg/mL (≈ 0.595 µM), the MIC (Neisseria perflava 19, Consensus) was 1 µg/mL (≈ 2.38 µM) and the MIC (Neisseria perflava 19, Replicate 1) was 1 µg/mL (≈ 2.38 µM). The MIC (Neisseria perflava 19, Replicate 2) was 1 µg/mL (≈ 2.38 µM), the MIC (Neisseria perflava 19, Replicate 3) was 1 µg/mL (≈ 2.38 µM) and the MIC (Neisseria perflava 20, Consensus) was 0.5 µg/mL (≈ 1.19 µM). The MIC (Neisseria perflava 20, Replicate 1) was 0.5 µg/mL (≈ 1.19 µM), the MIC (Neisseria perflava 20, Replicate 2) was 0.5 µg/mL (≈ 1.19 µM) and the MIC (Neisseria perflava 20, Replicate 3) was 0.5 µg/mL (≈ 1.19 µM). It also gave an MIC (Neisseria perflava 21, Consensus) of 1 µg/mL (≈ 2.38 µM), an MIC (Neisseria perflava 21, Replicate 1) of 1 µg/mL (≈ 2.38 µM) and an MIC (Neisseria perflava 21, Replicate 2) of 1 µg/mL (≈ 2.38 µM). For the same compound, the MIC (Neisseria perflava 21, Replicate 3) was 1 µg/mL (≈ 2.38 µM), the MIC (Neisseria perflava 22, Consensus) was 1 µg/mL (≈ 2.38 µM) and the MIC (Neisseria perflava 22, Replicate 1) was 1 µg/mL (≈ 2.38 µM). For the same compound, the MIC (Neisseria perflava 22, Replicate 2) was 1 µg/mL (≈ 2.38 µM), the MIC (Neisseria perflava 22, Replicate 3) was 1 µg/mL (≈ 2.38 µM) and the MIC (Neisseria perflava 23, Consensus) was 0.5 µg/mL (≈ 1.19 µM). The MIC (Neisseria perflava 23, Replicate 1) was 0.5 µg/mL (≈ 1.19 µM), the MIC (Neisseria perflava 23, Replicate 2) was 0.5 µg/mL (≈ 1.19 µM) and the MIC (Neisseria perflava 23, Replicate 3) was 0.5 µg/mL (≈ 1.19 µM). It also gave an MIC (Neisseria perflava 25, Consensus) of 1 µg/mL (≈ 2.38 µM), an MIC (Neisseria perflava 25, Replicate 1) of 1 µg/mL (≈ 2.38 µM) and an MIC (Neisseria perflava 25, Replicate 2) of 1 µg/mL (≈ 2.38 µM).
